Assay results as given in patent US4232035A, “Carbamate pesticidal compounds compositions and methods of use” (priority 1975, dated 1980).

Experiments:
Type in all cases: in vivo
Design in all cases: key: A: excellent control; B: partial control; C: no control
[1] = system: two-spotted mite (Tetranychus urticae Koch); test: Mite Foliage Spray Test; details: 500 parts per million foliage spray; six days
Method: (§1) Suspensions of the test compounds were prepared by dissolving one gram of compound in 50 milliliters of acetone in which had been dissolved 0.1 gram (10 percent of the weight of compound) of an alkylphenoxy polyethoxyethanol surfactant, as an emulsifying or dispersing agent. The resulting solution was mixed into 150 milliliters of water to give roughly 200 milliliters of a suspension containing the compound in finely divided form. The thus-prepared stock suspension contained 0.5 percent by weight of compound. The test concentrations in parts per million by weight employed in the tests described hereinbelow were obtained by appropriate dilutions of the stock suspension with water. The test procedures were as follows:
Adults and nymphal stages of the two-spotted mite (Tetranychus urticae Koch), reared on Tendergreen bean plants at 80±5 percent relative humidity, were the test organisms. Infested leaves from a stock culture were placed on the primary leaves of two bean plants six to eight inches in height, growing in a two-and-a-half inch clay pot. 150-200 Mites, a sufficient number for testing, transferred from the excised leaves to the fresh plants in a period of twenty four hours. Following the twenty four hour transfer period, the excised leaves were removed from the infested plants. The test compounds were formulated by diluting the stock suspension with water to give a suspension containing 500 parts of test compound per million parts of final formulation. The potted plants (one pot per compound) were placed on a revolving turntable and sprayed with 100-110 milliliters of test compound formulation by use of a DeVilbiss spray gun set at 40 psig. air pressure. This application, which lasted 25 seconds, was sufficient to wet the plants to run-off. As a control, 100-110 milliliters of a water solution containing acetone and emulsifier in the same concentrations as the test compound formulation, but containing no test compound, were also sprayed on infested plants. The sprayed plants were held at 80±5 percent relative humidity for six days, after which a mortality count of motile forms was made. Microscopic examination for motile forms was made on the leaves of the test plants. Any individual which was capable of locomotion upon prodding was considered living.

[2] = system: southern armyworm (Prodenia eridania, (Cram.)); test: Southern Armyworm Leaf Spray Test; details: 500 parts per million leaf spray; three days
Method: as §1
Larvae of the southern armyworm (Prodenia eridania, (Cram.)), reared on Tendergreen bean plants at a temperature of 80°±5° F. and a relative humidity of 50±5 percent, constituted the test insects.
The test compounds were formulated by diluting the stock suspension with water to give a suspension containing 500 parts of test compound per million parts of final formulation. Potted Tendergreen bean plants of standard height and age were placed on a revolving turntable and sprayed with 100-110 milliliters of test compound formulation by use of a DeVilbiss spray gun set at 10 psig air pressure. This application, which lasted 25 seconds, was sufficient to wet plants to run-off. As a control, 100-110 milliliters of a water-acetone-emulsifier solution containing no test compound were also sprayed on infested plants. When dry, the paired leaves were separated and each one was placed in a 9 centimeter Petri dish lined with moistened filter paper. Five randomly selected larvae were introduced into each dish and the dishes were closed. The closed dishes were labeled and held at 80°-85° F. for three days. Although the larvae could easily consume the whole leaf within twenty-four hours, no more food was added. Larvae which were unable to move the length of the body, even upon stimulation by prodding, were considered dead. Percent mortality was recorded for various concentration levels.

[3] = system: Mexican bean beetle (Epilachna varivestis, Muls.); test: Mexican Bean Beetle Leaf Spray Test; details: 500 parts per million leaf spray; fourth instar larvae; three days
Method: as §1
Fourth instar larvae of the Mexican bean beetle (Epilachna varivestis, Muls.), reared on Tendergreen bean plants at a temperature of 80°±5° F. and 50±5 percent relative humidity, were the test insects.
The test compounds were formulated by diluting the stock suspension with water to give a suspension containing 500 parts of test compound per million parts of final formulation. Potted Tendergreen bean plants of standard height and age were placed on a revolving turntable and sprayed with 100-110 milliliters of test compound formulation by use of a DeVilbiss spray gun set at 10 psig air pressure. This application, which lasted 25 seconds, was sufficient to wet plants to run-off. As a control, 100-110 milliliters of a water-acetone-emulsifier solution containing no test compound were also sprayed on infested plants. When dry, the paired leaves were separated and each was placed in a 9 centimeter Petri dish lined with moistened filter paper. Five randomly selected larvae were introduced into each dish, and the dishes were closed. The closed dishes were labeled and held at a temperature of 80°±5° F. for three days. Although the larvae could easily consume the leaf within 24 to 48 hours, no more food was added. Larvae which were unable to move the length of the body, even upon stimulation, were considered dead.

[4] = system: house flies (Musca domestica, L.); test: Fly Bait Test; details: 500 parts per million bait in sugar solution; twenty four hours
Method: as §1
Four to six day old adult house flies (Musca domestica, L.) reared according to the specifications of the Chemical Specialties Manufacturing Association (Blue Book, McNair-Dorland Co., N.Y. 1954; pages 243-244, 261) under controlled conditions of 80°±5° F. and 50±5 percent relative humidity, were the test insects. The flies were immobilized by anesthetizing with carbon dioxide and twenty five immobilized individuals, males and females, were transferred to a cage consisting of a standard food strainer about five inches in diameter which was inverted over a wrapping-paper-covered surface. The test compounds were formulated by diluting the stock suspension with a 10 percent (by weight) sugar solution to give a suspension containing 500 parts of test compound per million parts of final formulation, by weight. Ten milliliters of the test formulation were added to a souffle cup containing a one-inch square of an absorbent cotton pad. This bait cup was introduced and centered on the blotting paper under the food strainer prior to admitting the anesthetized flies. The caged flies were allowed to feed on the bait for twenty four hours, at a temperature of 80°±5° F. and the relative humidity of 50±5 percent.

Row | SMILES | Mite, pesticidal activity rating [1] | S. Armyworm, pesticidal activity rating [2] | M. Bean Beetle, pesticidal activity rating [3] | H. Fly, pesticidal activity rating [4]
1 | CN(SSC(C)(C)C)C(=O)ON=C1SCCS1 | C | A | A | A
2 | CN(SSC(C)(C)C)C(=O)ON=C1SC(C)(C)C(=O)N1C | C | A | A | A
